Assay [1] deals with KMS.12.BM cells. Put plainly: KMS.12.BM Cell Viability Assay (Example B1). The assay is classed as cell-based, human. To be noted: Homo sapiens, 72 h, 3 days, Cell Titer-GLO, read-out: KMS cellular IC50. Put shortly:
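KMS.12.BM human myeloma cells, 5000 cells/well in RPMI with 10% FBS, exposed to a compound concentration range for 3 days. Viable cells measured by ATP-based Cell Titer-GLO luminescence after 10 min at room temperature.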
On the technique in general: ATP-based viability assays read luminescence as a measure of living cells.

Assay [2] relates to C-myc in KMS.12.BM cells. The assay can be described thus: KMS.12.BM C-Myc ELISA Assay (Example C1). The format is cell-based. To be noted: Homo sapiens, 2 h. How it is done: KMS.12.BM C-Myc ELISA Assay
KMS.12.BM cell line (human myeloma) was purchased from JCRB (Osaka, Japan) and maintained in RPMI with 10% FBS culture medium. To measure the C-myc inhibitory activity of the compounds, the KMS.12.BM cells are plated in the RPMI culture medium at 75000 cells/well/per 200 μL into a 96-well flat bottom polystyrene tissue culture plate (Corning through VWR, NJ), in the presence or absence of a concentration range of test compounds. After 2 h, cells are pelleted and lysed with Cell Extraction Buffer (BioSource, Carlsbad, Calif.) in the presence of protease inhibitors (Life Technologies, Grand Island, N.Y. and Sigma, St Louis, Mo.). Clarified lyses are tested in a C-myc commercial ELISA (Life Technologies, Grand Island, N.Y.).
For orientation: An ELISA detects its analyte on a solid surface through an enzyme-linked reagent.

Structures are written as SMILES. Where a name gives a salt, the structure may show the parent alone. Read-outs that look alike come from different tables or passages of the source.

Broadly, the IC50 is the concentration that inhibits the measured activity by half.

Consider `CCNc1nc2ccc(-c3c(C)noc3C)c3c2n1C(c1ccccc1)CO3` (stereo not drawn) [Example 27, 7-(3,5-Dimethylisoxazol-4-yl)-N-ethyl-4-phenyl-4,5-dihydroimidazo[1,5,4-de][1,4]benzoxazin-2-amine], for which the 50% inhibitory concentration (IC50) in assay [1] and in assay [2] was under 1 µM throughout.

`CNc1nc2ccc(-c3c(C)noc3C)c3c2n1C(c1ccccc1)CO3` (stereo not drawn) [Example 26, 7-(3,5-Dimethylisoxazol-4-yl)-N-methyl-4-phenyl-4,5-dihydroimidazo[1,5,4-de][1,4]benzoxazin-2-amine]: the IC50 in assay [1] and in assay [2] was under 1 µM throughout.

`Cc1noc(C)c1-c1ccc2c3c1OCC(c1ccccc1)n3c(=O)n2CCN1CCOCC1` (stereo not drawn) [Example 10, 7-(3,5-Dimethylisoxazol-4-yl)-1-(2-morpholin-4-ylethyl)-4-phenyl-4,5-dihydroimidazo[1,5,4-de][1,4]benzoxazin-2(1H)-one]: the IC50 in assay [1] (KMS-12-BM) and in assay [2] was under 1 µM throughout.

On to `Cc1noc(C)c1-c1ccc2nc(N(C)C)n3c2c1OCC3c1ccccc1` (stereo not drawn) [Example 28, 7-(3,5-Dimethylisoxazol-4-yl)-N,N-dimethyl-4-phenyl-4,5-dihydroimidazo[1,5,4-de][1,4]benzoxazin-2-amine], for which the IC50 in assay [1] and in assay [2] was under 1 µM throughout.

Turning to `Cc1noc(C)c1-c1ccc2[nH]c(=O)n3c2c1OCC3c1nccs1` (stereo not drawn) [Example 21, 7-(3,5-Dimethylisoxazol-4-yl)-4-(1,3-thiazol-2-yl)-4,5-dihydroimidazo[1,5,4-de][1,4]benzoxazin-2(1H)-one], the IC50 in assay [1] and in assay [2] was under 1 µM each time.

With `Cc1noc(C)c1-c1ccc2nc(C)n3c2c1OCC3c1ccccc1` (stereo not drawn) [Example 9, 7-(3,5-Dimethylisoxazol-4-yl)-2-methyl-4-phenyl-4,5-dihydroimidazo[1,5,4-de][1,4]benzoxazine], the IC50 in assay [1] and in assay [2] was under 1 µM in each case.

`CC(=O)N1CCC(c2nc3ccc(-c4c(C)noc4C)c4c3n2[C@@H](c2ccccn2)CO4)CC1` [Example 109, (4S)-2-(1-Acetylpiperidin-4-yl)-7-(3,5-dimethylisoxazol-4-yl)-4-pyridin-2-yl-4,5-dihydroimidazo[1,5,4-de][1,4]benzoxazine]: the IC50 in assay [1] and in assay [2] was under 1 µM in each case.

For the compound `Cc1noc(C)c1-c1ccc2[nH]c(=O)n3c2c1OCC3c1cccnc1C(N)=O` (stereo not drawn) [Example 127, 3-[7-(3,5-Dimethylisoxazol-4-yl)-2-oxo-1,2,4,5-tetrahydroimidazo[1,5,4-de][1,4]benzoxazin-4-yl]pyridine-2-carboxamide trifluoroacetate], the IC50 in assay [1] and in assay [2] was under 1 µM each time.

As to `Cc1noc(C)c1-c1ccc2c3c1OCC(c1ccccc1)n3c(=O)n2C` (stereo not drawn) [Example 2, 7-(3,5-Dimethylisoxazol-4-yl)-1-methyl-4-phenyl-4,5-dihydroimidazo[1,5,4-de][1,4]benzoxazin-2(1H)-one], the IC50 in assay [1] and in assay [2] was under 1 µM each time.

As to `CNC(=O)c1nc2ccc(-c3c(C)noc3C)c3c2n1[C@@H](c1ccccn1)CO3` [Example 95, (4S)-7-(3,5-Dimethylisoxazol-4-yl)-N-methyl-4-pyridin-2-yl-4,5-dihydroimidazo[1,5,4-de][1,4]benzoxazine-2-carboxamide], the IC50 in assay [1] and in assay [2] was under 1 µM in each case.

For `CCNC(=O)c1ncccc1C1COc2c(-c3c(C)noc3C)ccc3[nH]c(=O)n1c23` (single isomer, unassigned) [Example 133, 3-[7-(3,5-dimethylisoxazol-4-yl)-2-oxo-1,2,4,5-tetrahydroimidazo[1,5,4-de][1,4]benzoxazin-4-yl]-N-ethylpyridine-2-carboxamide], the IC50 in assay [1] and in assay [2] was under 1 µM in each case.

Regarding `Cc1noc(C)c1-c1ccc2nc(NCCO)n3c2c1OCC3c1ccccc1` (stereo not drawn) [Example 29, 2-{[7-(3,5-Dimethylisoxazol-4-yl)-4-phenyl-4,5-dihydroimidazo[1,5,4-de][1,4]benzoxazin-2-yl]amino}ethanol], the IC50 in assay [1] and in assay [2] was under 1 µM in each case.

The values are drawn from patent publication US10464947B2 (Incyte Corporation, priority 2013, dated 2019).
